Where “and” joins values, the source holds several entries; their conditions need not be identical. Equal entries are not always repeated. Inconclusive results and toxic doses are left out. Cut-off read from the data, not from the text of the source: active = T/C of 150% or more; inactive = T/C below 125%.
Tested on: L1210 leukemia ip in BDF1 mice, survival T/C
Assay: NCI In Vivo Anticancer Drug Screen. Data for tumor model L1210 Leukemia (intraperitoneal) in B6D2F1 (BDF1) mice
Conditions: endpoint: mean survival time, higher = longer survival
How it was run: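 Read-out is survival time, reported as the treated-group measurement over the vehicle-control measurement.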

[1] = dose: 25.0 mg/kg/injection, schedule: Q01DX009 (ip), vehicle: saline
[2] = dose: 50.0 mg/kg/injection, schedule: Q01DX001 (ip), vehicle: saline
[3] = dose: 100.0 mg/kg/injection, schedule: Q01DX001 (ip), vehicle: saline
[4] = dose: 200.0 mg/kg/injection, schedule: Q01DX001 (ip), vehicle: saline
[5] = dose: 400.0 mg/kg/injection, schedule: Q01DX001 (ip), vehicle: saline
[6] = dose: 100.0 mg/kg/injection, schedule: Q04DX003 (ip), vehicle: Klucel (hydroxypropylcellulose) (HPC)
[7] = dose: 200.0 mg/kg/injection, schedule: Q04DX003 (ip), vehicle: Klucel (hydroxypropylcellulose) (HPC)
[8] = dose: 400.0 mg/kg/injection, schedule: Q04DX003 (ip), vehicle: Klucel (hydroxypropylcellulose) (HPC)
[9] = dose: 100.0 mg/kg/injection, schedule: Q01DX001 (ip), vehicle: carboxymethylcellulose (CMC)
[10] = dose: 200.0 mg/kg/injection, schedule: Q01DX001 (ip), vehicle: carboxymethylcellulose (CMC)
[11] = dose: 400.0 mg/kg/injection, schedule: Q01DX001 (ip), vehicle: carboxymethylcellulose (CMC)
[12] = dose: 100.0 mg/kg/injection, schedule: Q04DX003 (ip), vehicle: other
[13] = dose: 200.0 mg/kg/injection, schedule: Q04DX003 (ip), vehicle: other
[14] = dose: 400.0 mg/kg/injection, schedule: Q04DX003 (ip), vehicle: other
[15] = dose: 100.0 mg/kg/injection, schedule: Q01DX001 (ip), vehicle: Klucel (hydroxypropylcellulose) (HPC)
[16] = dose: 200.0 mg/kg/injection, schedule: Q01DX001 (ip), vehicle: Klucel (hydroxypropylcellulose) (HPC)
[17] = dose: 400.0 mg/kg/injection, schedule: Q01DX001 (ip), vehicle: Klucel (hydroxypropylcellulose) (HPC)

Measured: T/C

O=c1[nH]c(=O)c2cccnc2[nH]1
inactive: dose: 3.12 mg/kg/injection, schedule: Q01DX009 (ip), vehicle: saline 109 % of control | dose: 6.25 mg/kg/injection, schedule: Q01DX009 (ip), vehicle: saline 107 % of control | dose: 12.5 mg/kg/injection, schedule: Q01DX009 (ip), vehicle: saline 115 % of control | dose: 25.0 mg/kg/injection, schedule: Q01DX001 (ip), vehicle: saline 100 % of control | [1] 108 % of control | [2] 105 % of control | dose: 50.0 mg/kg/injection, schedule: Q01DX009 (ip), vehicle: saline 100 % of control | [3] 98 % of control and 100 % of control | dose: 100.0 mg/kg/injection, schedule: Q01DX009 (ip), vehicle: saline 94 % of control | [4] 98 % of control and 100 % of control

Cc1cc(O)c(C)c(C)c1N=Nc1ccccc1
inactive: dose: 100.0 mg/kg/injection, schedule: Q01DX009 (ip), vehicle: saline with Tween-80 101 % of control | dose: 100.0 mg/kg/injection, schedule: Q04DX002 (ip), vehicle: saline with Tween-80 108 % of control | dose: 200.0 mg/kg/injection, schedule: Q01DX009 (ip), vehicle: saline with Tween-80 89 % of control | dose: 200.0 mg/kg/injection, schedule: Q04DX002 (ip), vehicle: saline with Tween-80 90 % of control | dose: 400.0 mg/kg/injection, schedule: Q01DX009 (ip), vehicle: saline with Tween-80 95 % of control | dose: 400.0 mg/kg/injection, schedule: Q04DX002 (ip), vehicle: saline with Tween-80 93 % of control

C=CC1CN2CCC1CC2C(=O)c1ccnc2ccccc12 (configuration not stated)
inactive: [2] 101 % of control | [3] 104 % of control | [4] 106 % of control | [5] 98 % of control

CC/C=C/c1cccc(OC)c1
inactive: dose: 100.0 mg/kg/injection, schedule: Q01DX009 (ip), vehicle: Klucel (hydroxypropylcellulose) (HPC) 102 % of control | [6] 105 % of control | dose: 200.0 mg/kg/injection, schedule: Q01DX009 (ip), vehicle: Klucel (hydroxypropylcellulose) (HPC) 96 % of control | [7] 110 % of control | dose: 400.0 mg/kg/injection, schedule: Q01DX009 (ip), vehicle: Klucel (hydroxypropylcellulose) (HPC) 95 % of control | [8] 96 % of control

CC(=O)CCC(C)(C)[N+](=O)[O-]
inactive: dose: 75.0 mg/kg/injection, schedule: Q01DX009 (ip), vehicle: acetone 97 % of control | dose: 150.0 mg/kg/injection, schedule: Q01DX009 (ip), vehicle: acetone 94 % of control | dose: 300.0 mg/kg/injection, schedule: Q01DX009 (ip), vehicle: acetone 95 % of control

Cc1cccc(CCSCCc2cccc(C)[n+]2[O-])[n+]1[O-]
inactive: [3] 96 % of control | [4] 92 % of control

COc1ccc(C(C#N)C(O)(c2ccccc2)c2ccccc2)cc1 (configuration not stated)
inactive: [2] 104 % of control | [3] 107 % of control | [4] 98 % of control | [5] 93 % of control

CCCCCCCC(=O)N(CC(C)C)CC(C)C
inactive: [9] 102 % of control | dose: 100.0 mg/kg/injection, schedule: Q01DX009 (ip), vehicle: carboxymethylcellulose (CMC) 97 % of control | dose: 100.0 mg/kg/injection, schedule: Q04DX002 (ip), vehicle: carboxymethylcellulose (CMC) 101 % of control and 102 % of control | dose: 100.0 mg/kg/injection, schedule: Q04DX003 (ip), vehicle: carboxymethylcellulose (CMC) 97 % of control | [10] 96 % of control | dose: 200.0 mg/kg/injection, schedule: Q01DX009 (ip), vehicle: carboxymethylcellulose (CMC) 93 % of control and 98 % of control | dose: 200.0 mg/kg/injection, schedule: Q04DX002 (ip), vehicle: carboxymethylcellulose (CMC) 97 % of control and 102 % of control | dose: 200.0 mg/kg/injection, schedule: Q04DX003 (ip), vehicle: carboxymethylcellulose (CMC) 97 % of control | [11] 91 % of control | dose: 400.0 mg/kg/injection, schedule: Q04DX002 (ip), vehicle: carboxymethylcellulose (CMC) 94 % of control | dose: 400.0 mg/kg/injection, schedule: Q04DX003 (ip), vehicle: carboxymethylcellulose (CMC) 90 % of control

CN(C)C(=O)OCC[N+](C)(C)CCCCCCCCCC[N+](C)(C)CCOC(=O)N(C)C
inactive: dose: 0.63 mg/kg/injection, schedule: Q01DX009 (ip), vehicle: saline 94 % of control | dose: 1.25 mg/kg/injection, schedule: Q01DX009 (ip), vehicle: saline 98 % of control | dose: 2.5 mg/kg/injection, schedule: Q01DX009 (ip), vehicle: saline 93 % of control | dose: 5.0 mg/kg/injection, schedule: Q04DX003 (ip), vehicle: saline 94 % of control

CC(=O)OCC1OC(N2C(=O)/C(=C/c3ccc(Cl)cc3)SC2=S)C(OC(C)=O)C(OC(C)=O)C1OC(C)=O (configuration not stated)
inactive: dose: 25.0 mg/kg/injection, schedule: Q01DX005 (ip), vehicle: other 97 % of control

O=NN(CCN(N=O)c1ccccc1)c1ccccc1
inactive: dose: 100.0 mg/kg/injection, schedule: Q01DX001 (ip), vehicle: other 97 % of control | [12] 104 % of control | dose: 200.0 mg/kg/injection, schedule: Q01DX001 (ip), vehicle: other 97 % of control | [13] 101 % of control | dose: 400.0 mg/kg/injection, schedule: Q01DX001 (ip), vehicle: other 92 % of control | [14] 97 % of control

C(=N\N1CCN(/N=C/c2ccc3ccccc3n2)CC1)/c1ccc2ccccc2n1
inactive: [9] 89 % of control | [10] 86 % of control | [11] 94 % of control

CC(N)C(=O)NC(C(=O)O)C(C)C (configuration not stated)
inactive: dose: 100.0 mg/kg/injection, schedule: Q04DX002 (ip), vehicle: saline 101 % of control and 98 % of control | dose: 200.0 mg/kg/injection, schedule: Q04DX002 (ip), vehicle: saline 101 % of control and 95 % of control | dose: 400.0 mg/kg/injection, schedule: Q04DX002 (ip), vehicle: saline 96 % of control and 95 % of control

CC/C(=N\N=C(N)N)c1ccc(NC(N)=S)cc1
inactive: dose: 5.0 mg/kg/injection, schedule: Q01DX009 (ip), vehicle: saline 100 % of control | dose: 10.0 mg/kg/injection, schedule: Q01DX009 (ip), vehicle: saline 105 % of control | dose: 20.0 mg/kg/injection, schedule: Q01DX009 (ip), vehicle: saline 107 % of control | [1] 107 % of control | dose: 40.0 mg/kg/injection, schedule: Q01DX009 (ip), vehicle: saline 103 % of control | dose: 80.0 mg/kg/injection, schedule: Q01DX009 (ip), vehicle: saline 117 % of control

O=C(C1=CCCCC1)c1ccccc1
inactive: dose: 75.0 mg/kg/injection, schedule: Q04DX002 (ip), vehicle: saline with Tween-80 108 % of control | dose: 150.0 mg/kg/injection, schedule: Q04DX002 (ip), vehicle: saline with Tween-80 97 % of control | dose: 300.0 mg/kg/injection, schedule: Q04DX002 (ip), vehicle: saline with Tween-80 114 % of control

c1ccc2[nH]c(SCCSc3nc4ccccc4[nH]3)nc2c1
inactive: dose: 100.0 mg/kg/injection, schedule: Q04DX002 (ip), vehicle: Klucel (hydroxypropylcellulose) (HPC) 111 % of control | dose: 200.0 mg/kg/injection, schedule: Q04DX002 (ip), vehicle: Klucel (hydroxypropylcellulose) (HPC) 107 % of control | dose: 400.0 mg/kg/injection, schedule: Q04DX002 (ip), vehicle: Klucel (hydroxypropylcellulose) (HPC) 92 % of control

O=c1cc(CCCCCc2ccccc2)[nH]c(=O)[nH]1
inactive: [15] 97 % of control | [16] 97 % of control | [17] 101 % of control

O=C1C(Br)=C(c2ccccc2)C(=O)C(Br)=C1c1ccccc1
inactive: [9] 90 % of control | [10] 92 % of control | [11] 97 % of control

COC1C(COS(=O)(=O)c2ccc(C)cc2)OC2OC(C)(C)OC21 (configuration not stated)
inactive: [12] 92 % of control | [13] 97 % of control | [14] 101 % of control

NCCCCC(N)C(=O)O (configuration not stated)
inactive: [15] 115 % of control | [3] 94 % of control | [16] 100 % of control | [4] 97 % of control | [17] 86 % of control | [5] 94 % of control

Clc1ccc(N=Cc2ccc(C=Nc3ccc(Cl)c(Cl)c3)cc2)cc1Cl
inactive: [6] 97 % of control | dose: 200.0 mg/kg/injection, schedule: Q01DX009 (ip), vehicle: saline sonified 89 % of control | [7] 89 % of control | [8] 96 % of control

COc1ccc(/C=C2/N=C(C)OC2=O)cc1
inactive: [15] 92 % of control | [16] 98 % of control | [17] 102 % of control
